Reference: patent publication US20260166128A1, “HUMAN AMYLIN ANALOG, AND DERIVATIVE THEREOF AND USE THEREOF” (priority 2022, published 2026)
Numbered stars: 1 amine (or outer) side, 2 acyl side, 3 side chain; on linkers, the order of the positions; unused ones are H or OH. Bridge positions count the residues as written; N and C are the ends. Square brackets hold non-standard residues; d marks the D form. Side chains are listed from the residue outwards. Peptide text beside a SMILES is read from it. * marks the point of attachment. C20 diacid = O=C(O)CCCCCCCCCCCCCCCCCCC(=O)*; γGlu = O=C(O)[C@H](CCC(=O)[*:2])N[*:1]; Hyp = O=C(O)[C@@H]1C[C@@H](O)CN1; Aze = O=C(O)[C@@H]1CCN1

Columns and labels:
[1] = biological target: T1, human amylin receptor (Homo sapiens, UniProt O60896+P30988); assay: Luciferase assay of amylin derivatives in amylin receptor/CRE-luc CHO cell line; assay type: cell-based; conditions: CHO-K1/Ga15/AMY3 CRE-luc cells, 24 hours incubation, F12 medium containing 10% FBS; read-out: EC50
T1 construct: host or cells: CHO-K1/Ga15/AMY3 cells, further stably transfected with a CRE-luciferase plasmid
T1 sequence (P30988 25-474): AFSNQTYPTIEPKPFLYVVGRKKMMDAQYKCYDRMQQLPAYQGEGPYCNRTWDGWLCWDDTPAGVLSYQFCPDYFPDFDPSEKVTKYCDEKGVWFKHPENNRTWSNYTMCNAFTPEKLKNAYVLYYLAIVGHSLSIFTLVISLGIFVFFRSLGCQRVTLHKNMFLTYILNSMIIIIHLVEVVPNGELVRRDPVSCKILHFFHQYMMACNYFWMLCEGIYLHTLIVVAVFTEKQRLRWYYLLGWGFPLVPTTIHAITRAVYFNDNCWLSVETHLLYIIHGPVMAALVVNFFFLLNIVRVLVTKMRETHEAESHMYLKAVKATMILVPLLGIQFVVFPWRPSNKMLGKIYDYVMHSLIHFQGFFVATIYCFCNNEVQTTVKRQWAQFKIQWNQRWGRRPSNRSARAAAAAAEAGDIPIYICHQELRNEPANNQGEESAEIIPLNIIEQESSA
T1 sequence (O60896 24-148 partner): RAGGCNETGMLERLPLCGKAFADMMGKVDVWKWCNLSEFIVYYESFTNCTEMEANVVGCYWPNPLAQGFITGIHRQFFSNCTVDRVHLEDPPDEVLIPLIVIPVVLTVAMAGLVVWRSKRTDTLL
Protocol: The experiment was intended to detect the activity or efficacy of the amylin derivatives on a human amylin receptor in vitro by luciferase assay.
50 μL of growth medium (F12 medium containing 10% FBS) was added into each well of a white 96-well plate, and the stably transfected amylin/CRE-lue CHO cells were inoculated into the white 96-well plate at a density of about 20,000 cells/well for activity determination.

[2] = Freeze-thaw stability of derivatives (freeze-thaw yield by liquid chromatography); assay type: physicochemical; conditions: for Dissolution property: appearance after dissolution at 0.2 mg/ml in 20 mM phosphate buffer solution (PB) (pH 7.0); for Freeze storage property: appearance after overnight storage at −20° C. and thawing to room temperature, 0.2 mg/ml in 20 mM PB (pH 7.0); for Freeze storage yield: concentration of polypeptide after freezing and thawing / concentration before, by liquid chromatography, −20° C. overnight
Method in brief: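 Lyophilised peptide derivative dissolved at 0.2 mg/ml in 20 mM phosphate buffer, pH 7.0, frozen overnight at −20° C, then thawed at room temperature. Peptide concentration before and after freeze-thaw measured by reversed-phase HPLC on centrifuged supernatant; yield = post-thaw/pre-thaw concentration.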

For `CC[C@H](C)[C@H](NC(=O)[C@@H]1CCCN1C(=O)[C@H](CCCCNC(=O)CC[C@H](NC(=O)CCCCCCCCCCCCCCCCCCC(=O)O)C(=O)O)NC(=O)[C@H](CC(C)C)NC(=O)[C@H](CC(N)=O)NC(=O)[C@H](CC(N)=O)NC(=O)[C@H](CO)NC(=O)[C@H](CO)NC(=O)[C@H](Cc1c[nH]cn1)NC(=O)[C@H](CCCNC(=N)N)NC(=O)[C@H](CC(C)C)NC(=O)[C@H](Cc1ccccc1)NC(=O)[C@H](CCC(=O)O)NC(=O)[C@H](C)NC(=O)[C@H](CC(C)C)NC(=O)[C@H](CCCNC(=N)N)NC(=O)[C@H](CCC(N)=O)NC(=O)[C@@H](NC(=O)[C@H](C)NC(=O)[C@@H]1CSSC[C@H](N)C(=O)N[C@@H](CC(N)=O)C(=O)N[C@@H]([C@@H](C)O)C(=O)N[C@@H](C)C(=O)N[C@@H]([C@@H](C)O)C(=O)N1)[C@@H](C)O)C(=O)N[C@@H](CC(C)C)C(=O)N1CCC[C@H]1C(=O)N1CCC[C@H]1C(=O)N[C@H](C(=O)N[C@@H](CC(N)=O)C(=O)N[C@H](C(=O)NCC(=O)N[C@@H](CO)C(=O)N[C@@H](CC(N)=O)C(=O)N[C@H](C(=O)N1CCC[C@H]1C(N)=O)[C@@H](C)O)C(C)C)[C@@H](C)O` [PD049] (H-CNTATCATQRLAEFLRHSSNNLK([γGlu-C20 diacid])PILPPTNVGSNTP-NH2; disulfide 1-6 (inferred); N-terminus assumed), the EC50 [1] was 0.215 nM, the Dissolution property [2] was “Clear” and the Freeze storage property [2] was “Clear”. For the same compound, the Freeze storage yield [2] was 99.00%.
In the case of `CC[C@H](C)[C@H](NC(=O)[C@@H]1CCCN1C(=O)[C@H](CCCCNC(=O)CC[C@H](NC(=O)CCCCCCCCCCCCCCCCCCC(=O)O)C(=O)O)NC(=O)[C@H](CC(C)C)NC(=O)[C@H](CC(N)=O)NC(=O)[C@H](CC(N)=O)NC(=O)[C@H](CO)NC(=O)[C@H](CO)NC(=O)[C@H](Cc1c[nH]cn1)NC(=O)[C@H](CCCNC(=N)N)NC(=O)[C@H](CC(C)C)NC(=O)[C@H](Cc1ccccc1)NC(=O)[C@H](CC(=O)O)NC(=O)[C@H](C)NC(=O)[C@H](CC(C)C)NC(=O)[C@H](CCCNC(=N)N)NC(=O)[C@H](CCC(N)=O)NC(=O)[C@@H](NC(=O)[C@H](C)NC(=O)[C@@H]1CSSC[C@H](N)C(=O)N[C@@H](CC(N)=O)C(=O)N[C@@H]([C@@H](C)O)C(=O)N[C@@H](C)C(=O)N[C@@H]([C@@H](C)O)C(=O)N1)[C@@H](C)O)C(=O)N[C@@H](CC(C)C)C(=O)N1CCC[C@H]1C(=O)N1CCC[C@H]1C(=O)N[C@H](C(=O)N[C@@H](CC(N)=O)C(=O)N[C@H](C(=O)NCC(=O)N[C@@H](CO)C(=O)N[C@@H](CC(N)=O)C(=O)N[C@H](C(=O)N1CCC[C@H]1C(N)=O)[C@@H](C)O)C(C)C)[C@@H](C)O` [PD050] (H-CNTATCATQRLADFLRHSSNNLK([γGlu-C20 diacid])PILPPTNVGSNTP-NH2; disulfide 1-6 (inferred)), the EC50 [1] is reported as 0.098 nM, the Dissolution property [2] is reported as “Clear” and the Freeze storage property [2] is reported as “Clear”. It also gave a Freeze storage yield [2] of 99.66%.
In the case of `CC[C@H](C)[C@H](NC(=O)[C@@H]1CCCN1C(=O)[C@H](CCCCNC(=O)CC[C@H](NC(=O)CCCCCCCCCCCCCCCCCCC(=O)O)C(=O)O)NC(=O)[C@H](CC(C)C)NC(=O)[C@H](CC(N)=O)NC(=O)[C@H](CC(N)=O)NC(=O)[C@H](CO)NC(=O)[C@H](CO)NC(=O)[C@H](Cc1c[nH]cn1)NC(=O)[C@H](CCCNC(=N)N)NC(=O)[C@H](CC(C)C)NC(=O)[C@H](Cc1ccccc1)NC(=O)[C@H](CC(=O)O)NC(=O)[C@H](C)NC(=O)[C@H](CC(C)C)NC(=O)[C@H](CCCNC(=N)N)NC(=O)[C@H](CCC(N)=O)NC(=O)[C@@H](NC(=O)[C@H](C)NC(=O)[C@@H]1CSSC[C@H](NC(=O)[C@@H](N)CCCNC(=N)N)C(=O)N[C@@H](CC(N)=O)C(=O)N[C@@H]([C@@H](C)O)C(=O)N[C@@H](C)C(=O)N[C@@H]([C@@H](C)O)C(=O)N1)[C@@H](C)O)C(=O)N[C@@H](CC(C)C)C(=O)N1CCC[C@H]1C(=O)N1CCC[C@H]1C(=O)N[C@H](C(=O)N[C@@H](CC(N)=O)C(=O)N[C@H](C(=O)NCC(=O)N[C@@H](CO)C(=O)N[C@@H](CC(N)=O)C(=O)N[C@H](C(=O)N1C[C@H](O)C[C@H]1C(N)=O)[C@@H](C)O)C(C)C)[C@@H](C)O` [PD052] (H-RCNTATCATQRLADFLRHSSNNLK([γGlu-C20 diacid])PILPPTNVGSNT[Hyp]-NH2; disulfide 2-7 (inferred); N-terminus assumed), the EC50 [1] is reported as 0.03 nM, the Dissolution property [2] is reported as “Clear” and the Freeze storage property [2] is reported as “Clear”. The Freeze storage yield [2] was 96.53%.
In the case of `CC[C@H](C)[C@H](NC(=O)[C@@H]1CCCN1C(=O)[C@H](CCCCNC(=O)CC[C@H](NC(=O)CCCCCCCCCCCCCCCCCCC(=O)O)C(=O)O)NC(=O)[C@H](CC(C)C)NC(=O)[C@H](CC(N)=O)NC(=O)[C@H](CC(N)=O)NC(=O)[C@H](CO)NC(=O)[C@H](CO)NC(=O)[C@H](Cc1c[nH]cn1)NC(=O)[C@H](CCCNC(=N)N)NC(=O)[C@H](CC(C)C)NC(=O)[C@H](Cc1ccccc1)NC(=O)[C@H](CC(=O)O)NC(=O)[C@H](C)NC(=O)[C@H](CC(C)C)NC(=O)[C@H](CCCNC(=N)N)NC(=O)[C@H](CCC(N)=O)NC(=O)[C@@H](NC(=O)[C@H](C)NC(=O)[C@@H]1CSSC[C@H](NC(=O)[C@@H](N)CCCNC(=N)N)C(=O)N[C@@H](CC(N)=O)C(=O)N[C@@H]([C@@H](C)O)C(=O)N[C@@H](C)C(=O)N[C@@H]([C@@H](C)O)C(=O)N1)[C@@H](C)O)C(=O)N[C@@H](CC(C)C)C(=O)N1CCC[C@H]1C(=O)N1CCC[C@H]1C(=O)N[C@H](C(=O)N[C@@H](CC(N)=O)C(=O)N[C@H](C(=O)NCC(=O)N[C@@H](CO)C(=O)N[C@@H](CC(N)=O)C(=O)N[C@H](C(=O)N1CC[C@H]1C(N)=O)[C@@H](C)O)C(C)C)[C@@H](C)O` [PD060] (H-RCNTATCATQRLADFLRHSSNNLK([γGlu-C20 diacid])PILPPTNVGSNT[Aze]-NH2; disulfide 2-7 (inferred)), the EC50 [1] is reported as 0.246 nM, the Dissolution property [2] is reported as “Clear” and the Freeze storage property [2] is reported as “Clear”. The Freeze storage yield [2] was 104.35%.
For `CC[C@H](C)[C@H](NC(=O)[C@@H]1CCCN1C(=O)CNC(=O)[C@H](Cc1ccccc1)NC(=O)[C@H](CC(N)=O)NC(=O)[C@H](CC(N)=O)NC(=O)[C@H](CO)NC(=O)[C@H](CO)NC(=O)[C@H](Cc1c[nH]cn1)NC(=O)[C@H](CCCNC(=N)N)NC(=O)[C@H](CC(C)C)NC(=O)[C@H](Cc1ccccc1)NC(=O)[C@H](CCC(=O)O)NC(=O)[C@H](C)NC(=O)[C@H](CC(C)C)NC(=O)[C@H](CCCNC(=N)N)NC(=O)[C@H](CCC(N)=O)NC(=O)[C@@H](NC(=O)[C@H](C)NC(=O)[C@@H]1CSSC[C@H](NC(=O)[C@@H](N)CCCCNC(=O)CC[C@H](NC(=O)CCCCCCCCCCCCCCCCCCC(=O)O)C(=O)O)C(=O)N[C@@H](CC(N)=O)C(=O)N[C@@H]([C@@H](C)O)C(=O)N[C@@H](C)C(=O)N[C@@H]([C@@H](C)O)C(=O)N1)[C@@H](C)O)C(=O)N[C@@H](CC(C)C)C(=O)N1CCC[C@H]1C(=O)N1CCC[C@H]1C(=O)N[C@H](C(=O)N[C@@H](CC(N)=O)C(=O)N[C@H](C(=O)NCC(=O)N[C@@H](CO)C(=O)N[C@@H](CC(N)=O)C(=O)N[C@H](C(=O)N1CCC[C@H]1C(N)=O)[C@@H](C)O)C(C)C)[C@@H](C)O` [PD066], the EC50 [1] was 0.044 nM, the Dissolution property [2] was “Clear” and the Freeze storage property [2] was “Clear”. For the same compound, the Freeze storage yield [2] was 93.44%.
For `CC[C@H](C)[C@H](NC(=O)[C@@H]1CCCN1C(=O)CNC(=O)[C@H](Cc1ccccc1)NC(=O)[C@H](CC(N)=O)NC(=O)[C@H](CC(N)=O)NC(=O)[C@H](CO)NC(=O)[C@H](CO)NC(=O)[C@H](Cc1c[nH]cn1)NC(=O)[C@H](CCCNC(=N)N)NC(=O)[C@H](CC(C)C)NC(=O)[C@H](Cc1ccccc1)NC(=O)[C@H](CC(=O)O)NC(=O)[C@H](C)NC(=O)[C@H](CC(C)C)NC(=O)[C@H](CCCNC(=N)N)NC(=O)[C@H](CCC(N)=O)NC(=O)[C@@H](NC(=O)[C@H](C)NC(=O)[C@@H]1CSSC[C@H](NC(=O)[C@H](CCCCN)NC(=O)CC[C@H](NC(=O)CCCCCCCCCCCCCCCCCCC(=O)O)C(=O)O)C(=O)N[C@@H](CC(N)=O)C(=O)N[C@@H]([C@@H](C)O)C(=O)N[C@@H](C)C(=O)N[C@@H]([C@@H](C)O)C(=O)N1)[C@@H](C)O)C(=O)N[C@@H](CC(C)C)C(=O)N1CCC[C@H]1C(=O)N1CCC[C@H]1C(=O)N[C@H](C(=O)N[C@@H](CC(N)=O)C(=O)N[C@H](C(=O)NCC(=O)N[C@@H](CO)C(=O)N[C@@H](CC(N)=O)C(=O)N[C@H](C(=O)N1C[C@H](O)C[C@H]1C(N)=O)[C@@H](C)O)C(C)C)[C@@H](C)O` [PD067] ({C20 diacid-γGlu}-KCNTATCATQRLADFLRHSSNNFGPILPPTNVGSNT[Hyp]-NH2; disulfide 2-7 (inferred)), the EC50 [1] was 0.034 nM, the Dissolution property [2] was “Clear” and the Freeze storage property [2] was “Clear”. The Freeze storage yield [2] was 98.84%.
